Each compound was assayed against T1, BACE1 (Homo sapiens, UniProt P56817) (assay: Cellular BACE1 Inhibition Assay (in vitro cellular Amyloidβ 1-40 production, HTRF immunoassay)). Details: inhibition of Amyloidβ 1-40 production; HEK-293 cells stably transfected with wild type APP695; 48 hours incubation; single assay or mean of multiple assays.
T1 construct: endogenous in cells; host or cells: HEK-293 cells stably transfected with wild type APP695
Type: cell-based
Procedure: The BACE inhibition properties of the compounds of the invention may be determined by the following in vitro cellular Amyloidβ 1-40 production assay.
Inhibition of Amyloidβ 1-40 production was determined by incubating cells with compound for 48 hours and quantifying the level of Amyloidβ 1-40 using an homogeneous time-resolved fluorescence (“HTRF”) immunoassay.
Materials and Methods: HEK-293 cells stably transfected with a DNA construct containing the coding sequence for the wild type APP695 sequence were grown in Dulbecco's Modified Eagle Medium (“DMEM”) supplemented with 10% fetal bovine serum, penicillin/streptomycin and 150 μg/mL G418. Cells were plated in 96-well plates at 35,000 cells/well and allowed to attach for 8-12 hours. Media was changed to DMEM supplemented with 10% fetal bovine serum, penicillin/streptomycin 15 minutes prior to compound addition. Diluted compounds were then added at a final concentration of 0.5% DMSO. After 48 hours, 4 μL of media from each well was added to a corresponding well of a 384 well plate (Perkin Elmer Cat#6008280) containing the HTRF reagents. HTRF reagents were obtained from the CisBio Amyloidβ 1-40 peptide assay kit (Cat# 62B40PEC) and were prepared as follows anti-peptide β (1-40)-Cryptate and anti-peptide β (1-40)-XL655 were stored in 2 plate aliquots at −80° C. Diluent and Reconstitution buffer were stored at 4° C. Aliquots of the two antibodies were diluted 1:100 with Reconstitution buffer, and this mixture was diluted 1:2 with Diluent. 12 μL of the reagent mixture was added to the required wells of the 384 well assay plate. The assay plate was incubated at 4° C. for 17 hours and then analyzed for fluorescence at 665 and 620 nm. The reported IC50 below may be from a single assay or the mean of multiple assays.

T1 sequence (P56817 46-501): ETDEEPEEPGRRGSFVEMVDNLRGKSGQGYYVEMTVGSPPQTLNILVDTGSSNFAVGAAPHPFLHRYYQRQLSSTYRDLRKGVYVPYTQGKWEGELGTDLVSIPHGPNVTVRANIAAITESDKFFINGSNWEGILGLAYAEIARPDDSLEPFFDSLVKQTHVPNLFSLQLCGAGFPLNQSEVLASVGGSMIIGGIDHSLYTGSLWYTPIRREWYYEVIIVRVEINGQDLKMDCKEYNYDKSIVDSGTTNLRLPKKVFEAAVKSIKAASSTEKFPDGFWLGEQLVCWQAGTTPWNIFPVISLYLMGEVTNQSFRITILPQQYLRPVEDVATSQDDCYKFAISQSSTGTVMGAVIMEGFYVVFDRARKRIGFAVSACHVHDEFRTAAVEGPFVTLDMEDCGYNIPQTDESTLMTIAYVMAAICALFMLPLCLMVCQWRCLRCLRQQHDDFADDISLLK

Compound | IC50 [nM]
CN1C(=O)[C@]2(N=C1N)c1cc(-c3cccnc3F)ccc1O[C@@]1(C)CCCO[C@H]12 (racemic) [Example 55, (4S*,4a′S*,10a′S*)-2-amino-8′-(2-fluoropyridin-3-yl)-1,4a′-dimethyl-3′,4′,4a′,10a′-tetrahydro-2′H-spiro[imidazole-4,10′-pyrano[3,2-b]chromen]-5 (1H)-one] | 18.3
CN1C(=O)C2(N=C1N)c1cc(-c3cccnc3F)ccc1O[C@H]1CCCC[C@H]12 (relative stereo) [Example 14, cis 2-amino-7′-(2-fluoropyridin-3-yl)-1-methyl-1′,2′,3′,4′,4a′,9a′-hexahydrospiro[imidazole-4,9′-xanthen]-5(1H)-one] | 48.3
CN1C(=O)C2(N=C1N)c1cc(-c3cc(F)cc(Cl)c3)ccc1O[C@H]1CCCC[C@H]12 (relative stereo) [Example 32, cis 2-amino-7′-(3-chloro-5-fluorophenyl)-1-methyl-1′,2′,3′,4′,4a′,9a′-hexahydrospiro[imidazole-4,9′-xanthen]-5(1H)-one] | 426
CN1C(=O)C2(N=C1N)c1cc(-c3cncc(Cl)c3)ccc1O[C@H]1CCCC[C@H]12 (relative stereo) [Example 33, cis 2-amino-7′-(5-chloropyridin-3-yl)-1-methyl-1′,2′,3′,4′,4a′,9a′-hexahydrospiro[imidazole-4,9′-xanthen]-5(1H)-one] | 32.2
CN1C(=O)C2(N=C1N)c1cc(-c3cncnc3)ccc1OC1CC(O)CCC12 (stereo not drawn) [Example 6, 2-amino-3′-hydroxy-1-methyl-7′-(pyrimidin-5-yl)-1′,2′,3′,4′,4a′,9a′-hexahydrospiro[imidazole-4,9′-xanthen]-5(1H)-one] | 36.2
CN1C(=O)C2(N=C1N)c1cc(-c3cc(F)cc(Cl)c3)ccc1OC1CC(C)(O)CCC12 (stereo not drawn) [Example 7, 2-amino-7′-(3-chloro-5-fluorophenyl)-3′-hydroxy-1,3′-dimethyl-1′,2′,3′,4′,4a′,9a′-hexahydrospiro[imidazole-4,9′-xanthen]-5(1H)-one] | 35.9
CN1C(=O)C2(N=C1N)c1cc(-c3cc(F)cc(Cl)c3)ccc1OC1CC3(CCC12)OCCO3 (stereo not drawn) [Example 10, 2″-amino-7′-(3-chloro-5-fluorophenyl)-1″-methyl-1″,2′,4′,4′a,5″,9′a-hexahydro-1′H-dispiro[1,3-dioxolane-2,3′-xanthene-9′,4″-imidazole]-5″-one] | 168
CN1C(=O)C2(N=C1N)c1cc(-c3cncc(Cl)c3)ccc1OC1CC(F)(F)CCC12 (stereo not drawn) [Example 17, 2-amino-7′-(5-chloropyridin-3-yl)-3′,3′-difluoro-1-methyl-1′,2′,3′,4′,4a′,9a′-hexahydrospiro[imidazole-4,9′-xanthen]-5(1H)-one] | 74.1
CN1C(=O)C2(N=C1N)c1cc(-c3cncnc3)ccc1OC1CC(F)(F)CCC12 (stereo not drawn) [Example 18, 2-amino-3′,3′-difluoro-1-methyl-7′-(pyrimidin-5-yl)-1′,2′,3′,4′,4a′,9a′-hexahydrospiro[imidazole-4,9′-xanthen]-5(1H)-one] | 125
CN1C(=O)C2(N=C1N)c1cc(-c3cccnc3F)ccc1OC1CC(F)(F)CCC12 (stereo not drawn) [Example 19, 2-amino-3′,3′-difluoro-7′-(2-fluoropyridin-3-yl)-1-methyl-1′,2′,3′,4′,4a′,9a′-hexahydrospiro[imidazole-4,9′-xanthen]-5(1H)-one] | 21.4
CN1C(=O)C2(N=C1N)c1cc(-c3cc(F)cc(Cl)c3)ccc1OC1CC(F)(F)CCC12 (stereo not drawn) [Example 20, 2-amino-7′-(3-chloro-5-fluorophenyl)-3′,3′-difluoro-1-methyl-1′,2′,3′,4′,4a′,9a′-hexahydrospiro[imidazole-4,9′-xanthen]-5(1H)-one] | 172
CCOC1CCC2C(C1)Oc1ccc(-c3cc(F)cc(Cl)c3)cc1C21N=C(N)N(C)C1=O (stereo not drawn) [Example 28, 2-amino-7′-(3-chloro-5-fluorophenyl)-3′-ethoxy-1-methyl-l′,2′,3′,4′,4a′,9a′-hexahydrospiro[imidazole-4,9′-xanthen]-5(1H)-one] | 51.2
CN1C(=O)C2(N=C1N)c1cc(-c3cc(F)cc(Cl)c3)ccc1OC1CC(OCC3CC3)CCC12 (stereo not drawn) [Example 29, 2-amino-7′-(3-chloro-5-fluorophenyl)-3′-(cyclopropylmethoxy)-1-methyl-1′,2′,3′,4′,4a′,9a′-hexahydrospiro[imidazole-4,9′-xanthen]-5(1H)-one] | 554
COC1CC[C@@H]2[C@@H](C1)Oc1ccc(-c3cc(F)cc(Cl)c3)cc1C21N=C(N)N(C)C1=O (stereo partly drawn) [Example 30, (4a′R,9a′S)-2-amino-7′-(3-chloro-5-fluorophenyl)-3′-methoxy-1-methyl-1′,2′,3′,4′,4a′,9a′-hexahydrospiro[imidazole-4,9′-xanthen]-5(1H)-one] | 22.3
CN1CC[C@@H]2Oc3ccc(-c4cc(F)cc(Cl)c4)cc3C3(N=C(N)N(C)C3=O)[C@@H]2C1 (stereo partly drawn) [Example 34, (4aS,10aS)-2′-amino-8-(3-chloro-5-fluorophenyl)-1′,2-dimethyl-1,2,3,4,4a,10a-hexahydrospiro[chromeno[3,2-c]pyridine-10,4′-imidazol]-5′(1′H)-one] | 1670
CN1C(=O)C2(N=C1N)c1cc(-c3cccc(Cl)c3)ccc1OC1CC(F)(F)CCC12 (stereo not drawn) [Example 35, 2-amino-7′-(3-chlorophenyl)-3′,3′-difluoro-1-methyl-1′,2′,3′,4′,4a′,9a′-hexahydrospiro[imidazole-4,9′-xanthen]-5(1H)-one] | 271

These reach a lower IC50. Values come first.

IC50 [nM] | Compound
13.2 | C[C@H]1OCCC2Oc3ccc(-c4cncc(Cl)c4)cc3[C@]3(N=C(N)N(C)C3=O)[C@@H]21 (mixture of isomers) [Example 50, (1′R*,4R*,4a′R*,10a′R*)-2-amino-8′45-chloropyridin-3-yl)-1,1′-dimethyl-3′,4′,4a′,10a'-tetrahydro-1′H-spiro[imidazole-4,10′-pyrano[4,3-b]chromen]-5(1H)-one]
8.6 | CN1C(=O)C2(N=C1N)c1cc(-c3cncc(Cl)c3)ccc1O[C@H]1CCCC[C@@H]12 (relative stereo) [Example 15, trans 2-amino-7′-(5-chloropyridin-3-yl)-1-methyl-1′,2′,3′,4′,4a′,9a′-hexahydrospiro[imidazole-4,9′-xanthen]-5(1H)-one]
2.3 | CN1C(=O)[C@]2(N=C1N)c1cc(-c3cncc(Cl)c3)ccc1O[C@]1(C)CCCO[C@H]12 (relative stereo) [Example 62, (4S*,4a′R*,10a′S*)-2-amino-8′-(5-chloropyridin-3-yl)-1,4a′-dimethyl-3′,4′,4a′,10a′-tetrahydro-2′H-spiro[imidazole-4,10′-pyrano[3,2-b]chromen]-5(1H)-one]
4.3 | CN1C(=O)[C@]2(N=C1N)c1cc(-c3cccc(C#N)c3)ccc1O[C@]1(C)CCCO[C@H]12 (relative stereo) [Example 63, 3-((4S*,4a′R*,10a′S*)-2-amino-1,4a′-dimethyl-5-oxo-1,3′,4′,4a′,5,10a′-hexahydro-2′H-spiro[imidazole-4,10′-pyrano[3,2-b]chromen]-8′-yl)benzonitrile]
1.8 | CN1C(=O)[C@]2(N=C1N)c1cc(-c3cccnc3F)ccc1O[C@@]1(C)CCCO[C@@H]12 (relative stereo) [Example 64, (4S*,4a′S*,10a′R*)-2-amino-8′-(2-fluoropyridin-3-yl)-1,4a′-dimethyl-3′,4′,4a′,10a′-tetrahydro-2′H-spiro[imidazole-4,10′-pyrano[3,2-b]chromen]-5(1H)-one]
2 | CN1C(=O)C2(N=C1N)c1cc(-c3cc(F)cc(Cl)c3)ccc1OC1CC(O)CCC12 (stereo not drawn) [Example 1, 2-amino-7′-(3-chloro-5-fluorophenyl)-3′-hydroxy-1-methyl-1′,2′,3′,4′,4a′,9a′-hexahydro spiro[imidazole-4,9′-xanthen]-5(1H)-one]
1.5 | CN1C(=O)C2(N=C1N)c1cc(-c3cccc(Cl)c3)ccc1OC1CC(O)CCC12 (stereo not drawn) [Example 2, 2-amino-7′-(3-chlorophenyl)-3′-hydroxy-1-methyl-1′,2′,3′,4′,4a′,9a′-hexahydrospiro[imidazole-4,9′-xanthen]-5(1H)-one]
1.3 | CN1C(=O)C2(N=C1N)c1cc(-c3cncc(Cl)c3)ccc1OC1CC(O)CCC12 (stereo not drawn) [Example 3, 2-amino-7′-(5-chloropyridin-3-yl)-3′-hydroxy-1-methyl-1′,2′,3′,4′,4a′,9a′-hexahydrospiro[imidazole-4,9′-xanthen]-5(1H)-one]
6.1 | CN1C(=O)C2(N=C1N)c1cc(-c3cncc(C(F)(F)F)c3)ccc1OC1CC(O)CCC12 (stereo not drawn) [Example 5, 2-amino-3′-hydroxy-1-methyl-7′-(5-(trifluoromethyl)pyridin-3-yl)-1′,2′,3′,4′,4a′,9a′-hexahydrospiro[imidazole-4,9′-xanthen]-5(1H)-one]
5.5 | CN1C(=O)C2(N=C1N)c1cc(-c3cc(F)cc(Cl)c3)ccc1OC1CC(=O)CCC12 (stereo not drawn) [Example 8, 2-amino-7′-(3-chloro-5-fluorophenyl)-1-methyl-1′,4′,4a′,9a′-tetrahydrospiro[imidazole-4,9′-xanthene]-3′,5(1H, 2′H)-dione]
11.4 | CN1C(=O)C2(N=C1N)c1cc(-c3cc(F)cc(Cl)c3)ccc1OC1CCCC[C@@H]12 (stereo partly drawn) [Example 12]

— US20120083501A1, “COMPOUNDS FOR TREATING NEURODEGENERATIVE DISEASES” (priority 2010, published 2012)
